Key:
[1] = system: Sp1 binding sequence in the p21/WAF1/Cip1 promoter; assay: Gel shift assay (EMSA) with nuclear extracts of TSA-treated and untreated MG63 cells; design: species or system human; settings: 500 ng/ml TSA for 24 hours vs untreated
Protocol: First, MG63 cells were incubated at 37° C. in a humidified atmosphere of 5% CO2 using DMEM medium (GIBCO BRL) containing 10% fetal calf serum (GIBCO BRL). Nuclear extracts of these cells were prepared from both TSA-treated and untreated cells, according to the method of Dignam et al. (Dignam, J. D. et al., (1983) Nucleic Acids Res. 11:1475-1489). First, cells cultured in a dish (100 mm) were incubated for 24 hours with 500 ng/ml TSA (Wako). This was then washed twice with cold PBS containing 0.5 mM 4-(2-aminoethyl)benzenesulfonyl fluoride HCl (p-ABSF) (Wako), the cells were scraped from the plate, and suspended in 10 mM Hepes/KOH buffer (pH7.9) containing 10 mM KCl, 1.5 mM MgCl2, 0.5 mM DTT, 5 mM NaF, 5 mM NaVO4, and 0.5 mM p-ABSF. After placing on ice for 10 minutes, the cells were disrupted using a Dounce homogenizer. […]
Next, based on the TSA-dependent promoter sequence (5′-CGGGTCCCGCCTCCTT-3′/SEQ ID NO: 1) located −87 to −72 bp from the transcription start site of the p21/WAF1/Cip1 gene, oligonucleotides (5′-[…]-3′/SEQ ID NO: 2, and 5′-[…]-3′/SEQ ID NO: 3) were synthesized. […] The reaction solution was resolved by electrophoresis on a 6% acrylamide gel and the proteins that bind to the p21/WAF1/Cip1 probe were detected using BAS 2000 (Fujix).

GAL4-Sp3 = assay: Reporter assay using the GAL4 binding sequence (pG5-luc), GAL4-Sp3, MG63 cells; assay type: cell-based, human; settings: GAL4-Sp3 (full-length Sp3, amino acids 1-653), TSA 500 ng/ml, 24 hours
From the text: This yielded pM-Sp1, pM-Sp3, pM-DNSp1, and pM-DNSp3, respectively. Each of the Sp1 and Sp3 genes was amplified by PCR. Specifically, pM-Sp1 production employed Sp1-S (5′-acaggtgagcttga-3′/SEQ ID NO: 4) and Sp1-AS (5′-tcagaagccattgcc-3′/SEQ ID NO: 5) as primers and used pPacSp1 as template for amplification (Kadonaga, J. T. et al., (1987) Cell 51:1079-1090). pM-DNSp1 production employed DNSp1-S (5′-[…]-3′/SEQ ID NO: 6) and DNSp1-AS (5′-gaagcatgcacctgc-3′/SEQ ID NO: 7) as primers and used pM-Sp1 as template for amplification (Kadonaga, J. T. et al., (1987) Cell 51: 1079-1090). pM-Sp3 production employed Sp3-18F (5′-[…]-3′/SEQ ID NO: 8) and Sp3-2R (5′-[…]-3′/SEQ ID NO: 9) as primers and used Marathon-Ready cDNA (Human Fetal Liver) (Clontech, Cat. #7403-1) as template for amplification (Chris, K. et al., (1992) J. Biol. Chem. 12: 4251-4261). pM-DNSp3 production employed Sp3-11F (5′-[…]-3′/SEQ ID NO: 10) and Sp3-2R (SEQ ID NO: 9) as primers and used pM-Sp3 as template for amplification (Chris, K. et al., (1992) J. Biol. Chem. 12: 4251-4261). All PCRs were carried out by performing 30 cycles of 94° C. for 1 minute, 55° C. for 30 seconds, and 72° C. for 30 seconds. The resulting PCR amplified product was inserted into a pM vector and the nucleotide sequence was confirmed using a DNA sequencer, ABI PRISM 355 (Applied Bio System). […]

[2] = system: GAL4-Sp3 deletion mutant proteins; assay: Reporter assay using the GAL4 binding sequence (pG5-luc), GAL4-Sp3 deletion mutants, MG63 cells; assay type: cell-based, human; settings: TSA 500 ng/ml, 24 hours
From the text: This yielded pM-Sp1, pM-Sp3, pM-DNSp1, and pM-DNSp3, respectively. Each of the Sp1 and Sp3 genes was amplified by PCR. Specifically, pM-Sp1 production employed Sp1-S (5′-acaggtgagcttga-3′/SEQ ID NO: 4) and Sp1-AS (5′-tcagaagccattgcc-3′/SEQ ID NO: 5) as primers and used pPacSp1 as template for amplification (Kadonaga, J. T. et al., (1987) Cell 51:1079-1090). pM-DNSp1 production employed DNSp1-S (5′-[…]-3′/SEQ ID NO: 6) and DNSp1-AS (5′-gaagcatgcacctgc-3′/SEQ ID NO: 7) as primers and used pM-Sp1 as template for amplification (Kadonaga, J. T. et al., (1987) Cell 51: 1079-1090). pM-Sp3 production employed Sp3-18F (5′-[…]-3′/SEQ ID NO: 8) and Sp3-2R (5′-[…]-3′/SEQ ID NO: 9) as primers and used Marathon-Ready cDNA (Human Fetal Liver) (Clontech, Cat. #7403-1) as template for amplification (Chris, K. et al., (1992) J. Biol. Chem. 12: 4251-4261). pM-DNSp3 production employed Sp3-11F (5′-[…]-3′/SEQ ID NO: 10) and Sp3-2R (SEQ ID NO: 9) as primers and used pM-Sp3 as template for amplification (Chris, K. et al., (1992) J. Biol. Chem. 12: 4251-4261). All PCRs were carried out by performing 30 cycles of 94° C. for 1 minute, 55° C. for 30 seconds, and 72° C. for 30 seconds. The resulting PCR amplified product was inserted into a pM vector and the nucleotide sequence was confirmed using a DNA sequencer, ABI PRISM 355 (Applied Bio System). As a control for the transfection test, pM that only expresses the GAL4 DNA binding domain was employed. The reporter plasmid (pG5-luc) used to indicate the dependence of transcriptional activation, on GAL4 was pGL3-Basic Vector (Promega), which carried the 5×GAL4 binding sequence, E1B minimum promoter, and TATA sequence, upstream of the luciferase gene.
The expression vector described above encoding various Sp1 or Sp3 GAL4 fusion proteins and the abovementioned vector carrying a luciferase reporter gene downstream of the consensus 5×GAL4 binding sequence were cotransfected into MG63 cells using SuperFect following the method by QIAGEN. Namely, cells were seeded at a density of 0.8×10^5 cells/well in a 12-well plate. After 24 hours, a pre-mixed reaction solution containing 0.5 μg of reporter plasmid, 2.5 μg of expression vector, and SuperFect were added to the MG63 cells and the mixture was reacted for 2 hours. Subsequently, the cells were cultured for 24 hours under normal culture conditions, cultured for another 24 hours with or without (control) 500 ng/ml of TSA, and then, the cells were lysed. Using luciferase substrate (Promega), luciferase activity of the cell lysates was measured using LB-96P (Berthold). The measured values were normalized and were expressed as activity per amount of protein. Transcriptional induction due to TSA treatment was calculated as a ratio with respect to the TSA-untreated control value (activation amplification by TSA).
Next, reporter assay was performed using various Sp3 deletion mutants fused to the GAL4 DNA binding domain in order to identify the TSA responsive region of Sp3. First, pM-Sp3 (1-398), pM-Sp3 (81-398), pM-Sp3 (161-398), pM-Sp3 (241-398), pM-Sp3 (1-80), pM-Sp3 (1-160), pM-Sp3 (1-240), and pM-Sp3 (1-320) were prepared. They respectively carry regions corresponding to the indicated amino acid numbers. […]
As a control for the transfection test, pM expressing only the GAL4 DNA binding domain was used. […] Transfection using these genes followed the same method as described above, and the occurrence of transcriptional induction due to TSA treatment in these mutants was monitored.

p21/WAF1/Cip1 promoter = assay: Luciferase reporter assay of p21/WAF1/Cip1 promoter (pWWP, pWPdel-BstXI) with dominant negative Sp3, MG63 cells; assay type: cell-based, human; settings: pWWP and pWPdel-BstXI reporters, forced expression of DNSp3 (pCMV-DNSp3), TSA 500 ng/ml
[3] = system: consensus Sp1 binding sequence; assay: Luciferase reporter assay of 3xSp1 binding sequence (Sp1-luc, mtSp1-luc) with dominant negative Sp3, MG63 cells; assay type: cell-based, human
[4] = system: all-trans-retinoic acid resistant acute promyelocytic leukemia; settings: in combination with all-trans retinoic acid; cited from earlier work

Molecule: CC(/C=C/C(=O)NO)=C\[C@@H](C)C(=O)c1ccc(N(C)C)cc1 [TSA, Trichostatin A]
- amount of DNA bound by Sp1 and Sp3 [1]: a difference in the amount of DNA bound by Sp1 and Sp3 due to the presence or absence of TSA treatment could not be observed
- transcriptional induction of the luciferase gene by TSA (ratio to TSA-untreated control) (GAL4-Sp3): strong transcriptional induction
- TSA dependent transcriptional induction ([2]; GAL4-DNSp3 (amino acids 399-653)): no longer showed TSA dependent transcriptional induction
- TSA dependent transcriptional induction ([2]; GAL4-Sp3 (1-80)): induction due to TSA treatment disappeared
- TSA dependent transcriptional induction ([2]; GAL4-Sp3 (1-398)): stronger than with GAL4-Sp3
- TSA dependent transcriptional induction ([2]; GAL4-Sp3 (81-160) alone): almost no activity
- TSA dependent transcriptional induction ([2]; GAL4-Sp3 (241-398)): induction due to TSA treatment disappeared
- transcriptional induction of p21/WAF1/Cip1 by TSA (p21/WAF1/Cip1 promoter): remarkably repressed by DNSp3
- TSA dependent transcriptional induction driven by the consensus Sp1 binding sequence ([3]; Sp1-luc reporter, forced expression of DNSp3, TSA 500 ng/ml): marked repression
- transcriptional induction by TSA ([3]; mtSp1-luc reporter (mutated Sp1 binding sequence), TSA 500 ng/ml): did not take place

Molecule: sodium phenylbutyrate
- remission of leukemia [4]: complete remission

Reference: patent US7407745B1, “Method for screening anticancer agent” (Chugai Seiyaku Kabushiki Kaisha, priority 1999, dated 2008)
